Results reported in patent publication US10174033B2, “N6-substituted adenosine derivatives and N6-substituted adenine derivatives and uses thereof” (INSTITUTE OF MATERIA MEDICA, CHINESE ACADEMY OF MEDICAL …, priority 2009, dated 2019).

tested on: male ICR-mice; assay: Potentiation of sodium pentobarbital sleeping time test; type: in vivo; conditions: intraperitoneal, 5 mg/kg, 38 mg/kg sodium pentobarbital 30 min later
Protocol: Effects of N^6-substituted adenosine derivatives and/or N^6-substituted adenine derivatives on sodium pentobarbital-induced sleeping time in mice.
Name of Experiment: Potentiation of sodium pentobarbital sleeping time test.
Method of Experiment: Groups of 8-10 male ICR-mice with an average weight of 18-22 g were used. They were dosed orally or i.p. with the test compound or the vehicle. Thirty min after i.p. injection or 60 min after oral dosing 38 mg/kg sodium pentobarbital were injected intravenously. The latency and duration of sleep (loss of righting reflex) were recorded. The percentage of prolongation of sleeping time was calculated as: [(sleeping time of experimental group)−(sleeping time of control group)]/(sleeping time of control group)×100%.

Compound | Sleep prolonging rate (%)
O=C(O)[C@H](Cc1c[nH]c2ccccc12)Nc1ncnc2c1ncn2[C@@H]1O[C@H](CO)C(O)C1O (some centres unmarked) [Example 112, N-(6-adenosine)-(D)-tryptophan] | 89

same assay, conditions: oral, 2.5 mg/kg, 38 mg/kg sodium pentobarbital 60 min later

Compound | Sleep prolonging rate (%)
CCC(Nc1ncnc2c1ncn2[C@@H]1O[C@H](CO)[C@@H](O)[C@H]1O)c1ccc(OC)cc1 (mixture of isomers) [Example 74, N^6-[(±)-1-(4-methoxyphenyl)-propyl]-adenosine] | 86
CC[C@@H](Nc1ncnc2c1ncn2[C@@H]1O[C@H](CO)[C@@H](O)[C@H]1O)c1ccccc1 [Example 75, N^6-[(R)-1-(phenyl)-propyl]-adenosine] | 183

same assay, conditions: oral, 5 mg/kg, 38 mg/kg sodium pentobarbital 60 min later

Compound | Sleep prolonging rate (%)
CCCOC[C@H]1O[C@@H](n2cnc3c(N[C@@H](CC)c4ccccc4)ncnc32)C(O)C1O (stereo partly drawn) [Example 83, N^6-[(S)-1-(phenyl)-propyl]-adenosine-5′-propyl ether] | 4
OC[C@H]1O[C@@H](n2cnc3c(NC(c4ccccc4)C4CCCCC4)ncnc32)C(O)C1O (mixture of isomers) [Example 93, N^6-[(±)-1-(cyclohexylphenyl)-methyl]-adenosine] | 17
CC(O)CN(CC(C)O)c1ncnc2c1ncn2[C@@H]1O[C@H](CO)[C@@H](O)[C@H]1O (some centres unmarked) [Example 140, N^6,N^6-bis(2-hydroxypropyl)-adenosine] | 5
COc1ccc([C@@H](C)Nc2ncnc3c2ncn3[C@@H]2O[C@H](CO)[C@@H](O)[C@H]2O)cc1 [Example 62, N^6-[(R)-1-(4-methoxyphenyl)-ethyl]-adenosine] | 66
OC[C@@H](Nc1ncnc2c1ncn2[C@@H]1O[C@H](CO)[C@@H](O)[C@H]1O)c1ccccc1 [Example 64, N^6-[(L)-2-(hydroxy)-1-(phenyl)-ethyl]-adenosine] | 67
COc1cccc([C@@H](C)Nc2ncnc3c2ncn3[C@@H]2O[C@H](CO)[C@@H](O)[C@H]2O)c1 [Example 65, N^6-[(R)-1-(3-methoxyphenyl)-ethyl]-adenosine] | 160
COc1ccc(CCC(=O)OC[C@H]2O[C@@H](n3cnc4c(NC(C)c5cc(OC)c(OC)c(OC)c5)ncnc43)C(O)C2O)cc1 (mixture of isomers) [Example 54, N^6-[(±)-1-(3,4,5-trimethoxyphenyl)-ethyl]-adenosine-5′-p-methoxy-phenyl propionate] | 76
CCCCCCCC(=O)OCC1OC(n2cnc3c(NCc4ccc5c(c4)OCO5)ncnc32)C2OC(C)(C)OC12 (centres unmarked) [N^6-(3,4-methylenedioxybenzyl)-2′,3′-O-isopropylidene-adenosine-5′-caprylate] | 4
C[C@@H](Nc1ncnc2c1ncn2[C@@H]1O[C@H](CO)[C@@H](O)[C@H]1O)c1ccc(F)cc1 [Example 70, N^6-[(R)-1-(4-fluorophenyl)-ethyl]-adenosine] | 136
CCCC(Nc1ncnc2c1ncn2[C@@H]1O[C@H](CO)[C@@H](O)[C@H]1O)c1ccc(OC)cc1 (mixture of isomers) [Example 88, N^6-[(±)-1-(4-methoxyphenyl)-butyl]-adenosine] | 80
CCC[C@@H](Nc1ncnc2c1ncn2[C@@H]1O[C@H](CO)C(O)C1O)c1ccccc1 (stereo partly drawn) [Example 89, N^6-[(R)-(phenyl)-butyl]-adenosine] | 163
N^6-[(R)-1-(phenyl)-propyl]-2′,3′-O-isopropylidene-adenosine-5′-acetate | 18
COc1ccc2c(c1)CCCC2Nc1ncnc2c1ncn2[C@@H]1O[C@H](CO)[C@@H](O)[C@H]1O (mixture of isomers) [Example 96, N^6-[(±)-(6-methoxy-1,2,3,4-tetrahydro-naphthalene-1-yl)]-adenosine] | 170
COC(=O)[C@@H](Cc1ccccc1)Nc1ncnc2c1ncn2[C@@H]1O[C@H](CO)C(O)C1O (some centres unmarked) [Example 105, N-(6-adenosine)-(D)-phenylalanine methyl ester] | 2
